From US7662842B2, “Thiazolidinone amides, thiazolidine carboxylic acid amides, and serine amides, including polyamine conjugates thereof, as selective anti-cancer agents” (Ohio State Univesity Research Foundation, priority 2003, dated 2010) come the findings set out here.

Molecules are shown by their SMILES. Some results are limits rather than exact numbers.

Format in all cases: cell-based
Data set [1] concerns CV-1 cells. The data set can be described thus: SRB cytotoxicity assay, CV-1 control cell line. The procedure: For in vitro cytotoxicity screening, 1000 to 5000 cells were plated into each well of 96-well plates depending on growth rate, and exposed to different concentrations of a test compound for 96 h in three to five replicates. All the compounds were dissolved in dimethyl sulfoxide at 5 to 20 mM, and diluted to desired concentrations in complete culture medium. Cell numbers at the end of the drug treatment were measured by the SRB assay (Gududuru et al., “Synthesis and Biological Evaluation of Novel Cytotoxic Phospholipids for Prostate Cancer,” Bioorg. Med. Chem. Lett. 14:4919-4923 (2004); Rubinstein et al., “Comparison of in vitro Anticancer-Drug-Screening Data Generated with a Tetrazolium Assay Versus a Protein Assay Against a Diverse Panel of Human Tumor Cell Lines,” J. Natl. Cancer Inst. 82:1113-1118 (1990), each of which is hereby incorporated by reference in its entirety). Briefly, the cells were fixed with 10% of trichloroacetic acid, stained with 0.4% SRB, and the absorbances at 540 nm was measured using a plate reader (DYNEX Technologies, Chantilly, Va.). […] A sandwich ELISA (Roche, Mannheim, Germany) utilizing monoclonal antibodies specific for DNA and histones was used to quantify degree of apoptosis induced by the analogs after 72 h exposure. This assay measures DNA-histone complexes (mono- and oligonucleosomes) released into cytoplasm from the nucleus during apoptosis. RH7777 cells were employed because of nonspecific cytotoxicity of compound 4 in receptor-negative cells as well as receptor-positive prostate cancer cells.
RH7777 and CV-1 cells were used as negative controls and MCF-7 cell line (breast cancer) was included to examine the selectivity. 5-Fluorouracil was used as reference drug.

Data set [2] has as its system DU-145 human prostate cancer cells. The data set is described as follows: SRB cytotoxicity assay, DU-145. The following applies: read-out: IC50 DU-145, 96 h exposure, prostate cancer cell line. The procedure: (§1) For in vitro cytotoxicity screening, 1000 to 5000 cells were plated into each well of 96-well plates depending on growth rate, and exposed to different concentrations of a test compound for 96 h in three to five replicates. All the compounds were dissolved in dimethyl sulfoxide at 5 to 20 mM, and diluted to desired concentrations in complete culture medium. Cell numbers at the end of the drug treatment were measured by the SRB assay (Gududuru et al., “Synthesis and Biological Evaluation of Novel Cytotoxic Phospholipids for Prostate Cancer,” Bioorg. Med. Chem. Lett. 14:4919-4923 (2004); Rubinstein et al., “Comparison of in vitro Anticancer-Drug-Screening Data Generated with a Tetrazolium Assay Versus a Protein Assay Against a Diverse Panel of Human Tumor Cell Lines,” J. Natl. Cancer Inst. 82:1113-1118 (1990), each of which is hereby incorporated by reference in its entirety). Briefly, the cells were fixed with 10% of trichloroacetic acid, stained with 0.4% SRB, and the absorbances at 540 nm was measured using a plate reader (DYNEX Technologies, Chantilly, Va.). […] A sandwich ELISA (Roche, Mannheim, Germany) utilizing monoclonal antibodies specific for DNA and histones was used to quantify degree of apoptosis induced by the analogs after 72 h exposure. This assay measures DNA-histone complexes (mono- and oligonucleosomes) released into cytoplasm from the nucleus during apoptosis.

For data set [3], the system named is PC-3 human prostate cancer cells. The data set is described as follows: SRB cytotoxicity assay, PC-3. The following applies: 96 h exposure, prostate cancer cell line. The procedure: as §1
For data set [4], the system named is LNCaP human prostate cancer cells. The data set is described as follows: SRB cytotoxicity assay, LNCaP. The note with it: 96 h exposure, prostate cancer cell line. The procedure:
as §1

Data set [5] concerns TSU-Pr1 human prostate cancer cells. The data set is described as follows: SRB cytotoxicity assay, TSU-Pr1. The following applies: 96 h exposure, prostate cancer cell line. The procedure:
(§2) Dr. Mitchell Steiner at University of Tennessee Health Science Center, kindly provided PPC-1 and TSU-Pr1 cells.
as §1

Data set [6] concerns RH7777 rat hepatoma cells. The data set is described as follows: SRB cytotoxicity assay, RH7777 control cell line. The following applies: SRB assay, 96 h exposure; control cell line. The procedure:
as §1

The subject of data set [7] is PPC-1 human prostate cancer cells. The data set is described as follows: SRB cytotoxicity assay, PPC-1. The following applies: 96 h exposure, prostate cancer cell line. The procedure:
as §2, §1

Data set [8] deals with human breast cancer cell line (MCF-7). The data set can be described thus: SRB cytotoxicity assay, MCF-7. The following applies: SRB assay. The procedure: as §1
In vitro cytotoxicity assay was performed by the same sulforhodamine B (SRB) assay (described above). The compounds shown in Table 8 below where tested for activity against the breast cancer and ovarian cancer cell lines.
RH7777 and CV-1 cells were used as negative controls and MCF-7 cell line (breast cancer) was included to examine the selectivity.

The test system of data set [9] is five human prostate cancer cell lines (DU-145, PC-3, LNCaP, PPC-1, and TSU-Pr1). The data set is described as follows: SRB assay, statements on the panel of prostate cancer cell lines. The procedure: Cell numbers at the end of the drug treatment were measured by the SRB assay (Gududuru et al., “Synthesis and Biological Evaluation of Novel Cytotoxic Phospholipids for Prostate Cancer,” Bioorg. Med. Chem. Lett. 14:4919-4923 (2004); Rubinstein et al., “Comparison of in vitro Anticancer-Drug-Screening Data Generated with a Tetrazolium Assay Versus a Protein Assay Against a Diverse Panel of Human Tumor Cell Lines,” J. Natl. Cancer Inst. 82:1113-1118 (1990), each of which is hereby incorporated by reference in its entirety). Briefly, the cells were fixed with 10% of trichloroacetic acid, stained with 0.4% SRB, and the absorbances at 540 nm was measured using a plate reader (DYNEX Technologies, Chantilly, Va.). […] A sandwich ELISA (Roche, Mannheim, Germany) utilizing monoclonal antibodies specific for DNA and histones was used to quantify degree of apoptosis induced by the analogs after 72 h exposure. This assay measures DNA-histone complexes (mono- and oligonucleosomes) released into cytoplasm from the nucleus during apoptosis. […] EDG-ology of Liver Injury,” Biochimica et Biophysica ACT 1582:251-256 (2002), which is hereby incorporated by reference in its entirety) was also utilized to understand whether the antiproliferative activity of these derivatives is mediated through inhibition of LPL receptors.

Turning to `COc1cc(C2NC(C(=O)NCCCCN)CS2)cc(OC)c1OC` (mixture of isomers) [Compound 222], the IC50 in data set [1], in data set [2], in data set [3], in data set [4], in data set [5] and in data set [6] was more than 100 µM in each case. The IC50 in data set [7], in [8] and in [9] was more than 100 µM each time.

With `COc1cc(C2NC(C(=O)NCCCNCCCCN)CS2)cc(OC)c1OC` (mixture of isomers) [Compound 223], the IC50 in data set [1], in data set [2], in data set [3], in [4], in data set [5] and in [6] was more than 100 µM throughout. Moreover, the IC50 in data set [7], in data set [8] and in data set [9] was more than 100 µM each time.

On to `NCCCCNC(=O)C(N)CO` (stereo not shown) [Compound 214], for which the IC50 in [1], in [2], in data set [3], in [4], in data set [5] and in [6] was more than 100 µM each time. For the same compound, the IC50 in [7], in data set [8] and in [9] was more than 100 µM in each case.

For `NCCCCNCCCNC(=O)C(N)CO` (stereo not shown) [Compound 215], the IC50 in data set [1], in [2], in data set [3], in data set [4], in [5] and in [6] was more than 100 µM in each case. The half-inhibitory concentration (IC50) in data set [7], in data set [8] and in [9] was more than 100 µM in each case.

Consider `NCCCNCCCCNCCCNC(=O)C(N)CO` (stereo not shown) [Compound 216], for which the IC50 in data set [1] worked out at 37.1 µM; in data set [2] it was 4.6 µM; in [3], 4.8 µM; in data set [4], 8 µM; in data set [5] it was 2.5 µM; in [6], 58.2 µM. In addition, the values for the IC50 in data set [7] and in data set [8] were 4 µM and more than 100 µM, respectively.

As for `NCCCCNC(=O)CN1C(=O)CSC1c1ccccc1` (stereo not shown) [Compound 218], the IC50 in data set [1], in data set [2], in data set [3], in data set [4], in data set [5] and in [6] was more than 100 µM each time. Also, the IC50 in data set [7], in data set [8] and in data set [9] was more than 100 µM in each case.

For the compound `NCCCCNCCCNC(=O)CN1C(=O)CSC1c1ccccc1` (stereo not shown) [Compound 219], the IC50 in [1], in data set [2], in data set [3], in data set [4], in [5] and in data set [6] was more than 100 µM in each case. For the same compound, the IC50 in data set [7], in data set [8] and in [9] was more than 100 µM each time.

Regarding `NCCCNCCCCNCCCNC(=O)CN1C(=O)CSC1c1ccccc1` (stereo not shown) [Compound 220], the IC50 in data set [1] is 34 µM; in data set [2], 5.3 µM; in [3], 7 µM; in data set [4] it was 12.2 µM; in data set [5] it was 3.2 µM; in data set [6], 68.4 µM. Besides, the values for the IC50 in data set [7] and in data set [8] were 5.7 µM and more than 100 µM, respectively.
